Data on 9 molecules can be found in ChEMBL document CHEMBL1201862, “PubChem BioAssay data set” (2004).

Each structure is given as a SMILES string. The source made the active and inactive calls.

One may read the EC50 as the concentration giving half of the maximal effect. A word on the IC50: it is the midpoint of a concentration-inhibition curve. In general, AC50 refers to the midpoint of the concentration-response curve, whichever way the signal moves.

The subject of data set [1] is HEK293. The data set is described as follows: inhibition of NOD1-driven NF-kB reporter – cell-based, luminescence, uHTS, primary screen (AID 1578). Format: functional. The settings on record: Homo sapiens.
Data set [2] concerns HEK293. The experiment in a line: cells. Format: functional, cell-based. The settings on record: Homo sapiens.
The subject of data set [3] is HEK293. The experiment in a line: cells. The data set is classed as functional, cell-based. The settings on record: Homo sapiens. The source holds these as a separate data set.
In data set [4] the target is Nucleotide-binding oligomerization domain-containing protein 2 (Homo sapiens, UniProt Q9HC29). The data set is described as follows: inhibition of NOD2-driven NF-kB reporter – cell-based, luminescence, uHTS, HEK293 (AID 1566). The data set is classed as functional.
Nucleotide-binding oligomerization domain-containing protein 2, sequence (Q9HC29 whole entry, the tested form may be a part): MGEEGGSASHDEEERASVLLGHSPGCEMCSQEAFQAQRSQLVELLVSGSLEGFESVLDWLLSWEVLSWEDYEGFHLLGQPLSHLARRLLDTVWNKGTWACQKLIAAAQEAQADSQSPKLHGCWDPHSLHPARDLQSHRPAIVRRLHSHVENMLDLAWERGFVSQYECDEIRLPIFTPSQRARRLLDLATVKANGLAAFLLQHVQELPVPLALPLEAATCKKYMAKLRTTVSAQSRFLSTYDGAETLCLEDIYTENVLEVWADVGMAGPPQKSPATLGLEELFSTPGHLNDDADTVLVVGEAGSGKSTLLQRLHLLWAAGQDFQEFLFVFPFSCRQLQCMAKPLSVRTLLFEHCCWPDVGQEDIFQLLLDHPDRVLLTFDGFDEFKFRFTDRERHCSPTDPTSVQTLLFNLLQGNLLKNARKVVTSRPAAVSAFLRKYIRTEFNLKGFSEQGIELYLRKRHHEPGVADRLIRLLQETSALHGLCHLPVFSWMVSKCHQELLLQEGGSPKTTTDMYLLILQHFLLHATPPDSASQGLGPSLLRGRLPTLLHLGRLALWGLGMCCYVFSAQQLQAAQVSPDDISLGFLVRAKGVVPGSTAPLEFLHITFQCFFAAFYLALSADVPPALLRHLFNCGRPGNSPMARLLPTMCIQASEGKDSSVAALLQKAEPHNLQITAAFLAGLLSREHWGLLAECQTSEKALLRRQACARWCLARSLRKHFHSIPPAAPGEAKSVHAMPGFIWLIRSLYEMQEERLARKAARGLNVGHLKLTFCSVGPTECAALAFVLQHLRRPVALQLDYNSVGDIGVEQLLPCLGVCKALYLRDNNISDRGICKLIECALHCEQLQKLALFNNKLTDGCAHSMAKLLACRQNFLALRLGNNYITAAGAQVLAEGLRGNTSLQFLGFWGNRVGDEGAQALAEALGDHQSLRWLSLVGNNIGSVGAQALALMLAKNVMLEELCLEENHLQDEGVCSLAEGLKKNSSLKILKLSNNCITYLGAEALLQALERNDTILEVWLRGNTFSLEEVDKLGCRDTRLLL
The test system of data set [5] is HEK293. The experiment in a line: NOD2 signaling inhibitors in MDP-stimulated cells, cell-based, uHTS, luminescence (AID 2001). Format: functional. Conditions: Homo sapiens.
Data set [6] concerns HEK293. The experiment in a line: cells. Format: functional, cell-based. The settings on record: Homo sapiens. This is another data set of the same source.
The next data set has as its target Nonstructural protein 1 (Influenza A virus, UniProt Q194T2). The data set is classed as functional, Influenza A virus (A/California/07/2009(H1N1)).
Data set [7] concerns Escherichia coli. The data set is described as follows: microbe, parasite or virus in culture.
For data set [8], the system named is Escherichia coli. The experiment in a line: microbe, parasite or virus in culture. This is another data set of the same source.
For data set [9], the system named is HEK293. The data set is described as follows: cells. Conditions: Homo sapiens.
Data set [10] relates to HEK293. The data set is described as follows: cells. The settings on record: Homo sapiens. This is another data set of the same source.
Data set [11] has as its system Streptococcus sp. 'group A'. The data set is described as follows: Streptococcus pyogenes SK(-)GAS viability under kanamycin – luminescence, BacTiterGlo, confirmation, counter-screen for streptokinase expression inhibitor project, dose response (AID 1900). Format: functional, organism-based. (A counterscreen serves to expose hits that act by an unwanted route or on another target.)

Another data set addresses T1, Streptokinase A (Streptococcus pyogenes serotype M1, UniProt P10520).
T1 sequence (P10520 whole entry): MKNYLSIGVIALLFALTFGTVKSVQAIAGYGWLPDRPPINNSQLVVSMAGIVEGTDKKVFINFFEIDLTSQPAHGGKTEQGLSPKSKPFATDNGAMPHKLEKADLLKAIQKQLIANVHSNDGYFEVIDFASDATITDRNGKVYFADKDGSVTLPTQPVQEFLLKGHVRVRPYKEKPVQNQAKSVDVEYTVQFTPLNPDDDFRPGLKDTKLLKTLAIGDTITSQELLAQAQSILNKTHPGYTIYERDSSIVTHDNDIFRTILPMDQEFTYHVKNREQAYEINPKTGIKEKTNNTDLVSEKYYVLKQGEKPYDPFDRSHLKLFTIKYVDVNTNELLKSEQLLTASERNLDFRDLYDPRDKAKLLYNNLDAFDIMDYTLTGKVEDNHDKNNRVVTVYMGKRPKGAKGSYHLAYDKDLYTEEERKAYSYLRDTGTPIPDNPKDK
The experiment in a line: viability-normalized secreted streptokinase activity reduction – plasminogen activation absorbance, OD405, dose response (AID 1914).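 Also: secreted streptokinase activity via plasminogen activation per viability signal from cell pellet.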 The data set is classed as functional, Streptococcus pyogenes M1 GAS.

For a further data set, the system named is Streptococcus. The experiment in a line: GAS UMAA2166 growth inhibition – luminescence, BacTiterGlo, counter-screen for streptokinase expression inhibitor project, dose response (AID 1915).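 Also: potency for reduction of bacterial viability or growth.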 The data set is classed as functional, organism-based.
Data set [12] addresses T2, Ubiquitin-conjugating enzyme E2 N (Homo sapiens, UniProt P61088).
T2 sequence (P61088 whole entry): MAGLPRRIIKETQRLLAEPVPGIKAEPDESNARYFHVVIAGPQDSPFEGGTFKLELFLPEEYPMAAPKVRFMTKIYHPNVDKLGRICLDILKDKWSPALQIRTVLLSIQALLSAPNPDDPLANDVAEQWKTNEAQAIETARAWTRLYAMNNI
Format: functional.

Another data set has as its system INS1. The experiment in a line: INS-1E survival protection against cytokine death – cell-based, luminescence, retest, dose response (AID 449756).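 Also: cell death triggered by IL-1 beta plus TNF-alpha plus IFN-gamma mixture; protective hits raise ATP signal compared with cytokine alone wells.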 Format: functional. Conditions: Rattus norvegicus.
A further data set deals with Trypsin (Sus scrofa, UniProt P00761). The data set is described as follows: trypsin protease activity blockade – biochemical, quenched peptide fluorescence, cherry-pick, selectivity assay for Rce1 protease inhibitor project, dose response (AID 488789).
Trypsin, sequence (P00761 whole entry): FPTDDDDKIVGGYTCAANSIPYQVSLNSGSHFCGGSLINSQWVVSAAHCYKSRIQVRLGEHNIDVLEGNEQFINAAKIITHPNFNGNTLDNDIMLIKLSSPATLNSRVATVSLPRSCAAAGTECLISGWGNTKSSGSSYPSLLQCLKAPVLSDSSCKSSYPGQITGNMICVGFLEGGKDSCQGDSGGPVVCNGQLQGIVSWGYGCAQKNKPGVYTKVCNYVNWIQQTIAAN
The target in data set [13] is CAAX prenyl protease 2 (Saccharomyces cerevisiae S288c, UniProt Q03530). Format: biochemical.
CAAX prenyl protease 2 (Saccharomyces cerevisiae S288c, UniProt Q03530), sequence (Q03530 whole entry): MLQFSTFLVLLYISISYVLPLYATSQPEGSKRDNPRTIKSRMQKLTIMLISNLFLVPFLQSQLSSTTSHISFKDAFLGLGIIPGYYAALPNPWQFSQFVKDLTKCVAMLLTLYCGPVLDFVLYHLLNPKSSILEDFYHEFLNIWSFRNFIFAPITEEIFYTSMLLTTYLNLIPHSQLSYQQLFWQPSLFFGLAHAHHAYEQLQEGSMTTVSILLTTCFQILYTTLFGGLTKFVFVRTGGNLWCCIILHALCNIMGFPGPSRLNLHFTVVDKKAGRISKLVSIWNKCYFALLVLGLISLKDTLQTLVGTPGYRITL
Data set [14] concerns the target CAAX prenyl protease 2 (Homo sapiens, UniProt Q9Y256). The experiment in a line: inhibition of Ras-converting CAAX protease Rce1 – biochemical, yeast membranes, quenched-peptide fluorescence, cherry-pick, dose response (AID 588849).
The target in the next data set is T3, Estrogen receptor (Homo sapiens, UniProt P03372).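 Also: potency for inhibiting coactivator peptide recruitment to the receptor.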
T3 sequence (P03372 whole entry): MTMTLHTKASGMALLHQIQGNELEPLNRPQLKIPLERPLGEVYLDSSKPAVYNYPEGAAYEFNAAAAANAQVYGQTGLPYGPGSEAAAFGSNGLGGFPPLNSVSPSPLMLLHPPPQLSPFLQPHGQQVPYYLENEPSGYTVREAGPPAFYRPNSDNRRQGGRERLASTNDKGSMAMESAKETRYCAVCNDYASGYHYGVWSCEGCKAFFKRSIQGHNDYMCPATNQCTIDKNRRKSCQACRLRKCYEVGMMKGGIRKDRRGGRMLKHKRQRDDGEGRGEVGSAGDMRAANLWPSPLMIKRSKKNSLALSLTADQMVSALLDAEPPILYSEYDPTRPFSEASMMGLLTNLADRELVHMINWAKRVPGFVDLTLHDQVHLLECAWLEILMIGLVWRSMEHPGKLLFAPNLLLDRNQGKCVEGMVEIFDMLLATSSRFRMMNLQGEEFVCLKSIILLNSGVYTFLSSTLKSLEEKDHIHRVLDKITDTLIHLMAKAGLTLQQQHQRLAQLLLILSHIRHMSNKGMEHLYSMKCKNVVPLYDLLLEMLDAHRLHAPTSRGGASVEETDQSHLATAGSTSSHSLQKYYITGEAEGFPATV

For the next data set, the target named is Cytochrome P450 2D6 (Homo sapiens, UniProt P10635).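 Also: CYP2D6 member of a cytochrome P450 panel assay.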
Cytochrome P450 2D6, sequence (P10635 whole entry): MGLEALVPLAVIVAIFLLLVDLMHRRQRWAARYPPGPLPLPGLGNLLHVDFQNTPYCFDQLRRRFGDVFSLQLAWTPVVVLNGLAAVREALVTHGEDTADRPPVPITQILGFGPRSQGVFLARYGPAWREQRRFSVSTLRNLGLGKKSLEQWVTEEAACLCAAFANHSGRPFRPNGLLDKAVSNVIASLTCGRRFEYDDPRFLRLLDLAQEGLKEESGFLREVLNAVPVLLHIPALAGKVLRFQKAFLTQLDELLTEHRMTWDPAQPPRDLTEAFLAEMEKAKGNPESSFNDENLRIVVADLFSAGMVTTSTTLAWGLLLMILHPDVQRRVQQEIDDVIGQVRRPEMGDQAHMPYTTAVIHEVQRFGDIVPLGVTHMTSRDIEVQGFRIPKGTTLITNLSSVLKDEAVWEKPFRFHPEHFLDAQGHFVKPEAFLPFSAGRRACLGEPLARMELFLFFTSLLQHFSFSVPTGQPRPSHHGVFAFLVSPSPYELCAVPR
A further data set addresses Cytochrome P450 2C19 (Homo sapiens, UniProt P33261). The data set is described as follows: Cytochrome panel assay with activity outcomes. Panel member name: p450-cyp2c19 Compounds with AC50 equal or less than 10 uM are considered active. Format: functional. The settings on record: read-out: AC50.
A further data set addresses Cytochrome P450 3A4 (Homo sapiens, UniProt P08684).
The target in a further data set is Cytochrome P450 2C9 (Homo sapiens, UniProt P11712).
Cytochrome P450 2C9, sequence (P11712 whole entry): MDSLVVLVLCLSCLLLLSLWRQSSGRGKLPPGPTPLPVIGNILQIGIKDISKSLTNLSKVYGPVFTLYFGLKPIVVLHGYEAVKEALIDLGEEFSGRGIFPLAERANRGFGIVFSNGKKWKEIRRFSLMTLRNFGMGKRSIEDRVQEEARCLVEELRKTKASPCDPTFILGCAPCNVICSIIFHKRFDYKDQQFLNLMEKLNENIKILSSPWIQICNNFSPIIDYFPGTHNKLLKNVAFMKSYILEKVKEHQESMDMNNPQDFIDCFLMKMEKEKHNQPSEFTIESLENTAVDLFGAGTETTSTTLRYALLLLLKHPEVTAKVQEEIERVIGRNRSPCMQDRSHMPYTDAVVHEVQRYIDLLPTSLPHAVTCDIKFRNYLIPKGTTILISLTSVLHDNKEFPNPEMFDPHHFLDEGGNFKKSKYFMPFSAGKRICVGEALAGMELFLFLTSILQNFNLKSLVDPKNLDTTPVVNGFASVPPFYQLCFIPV

Cytochrome P450 2C19, sequence (P33261 whole entry): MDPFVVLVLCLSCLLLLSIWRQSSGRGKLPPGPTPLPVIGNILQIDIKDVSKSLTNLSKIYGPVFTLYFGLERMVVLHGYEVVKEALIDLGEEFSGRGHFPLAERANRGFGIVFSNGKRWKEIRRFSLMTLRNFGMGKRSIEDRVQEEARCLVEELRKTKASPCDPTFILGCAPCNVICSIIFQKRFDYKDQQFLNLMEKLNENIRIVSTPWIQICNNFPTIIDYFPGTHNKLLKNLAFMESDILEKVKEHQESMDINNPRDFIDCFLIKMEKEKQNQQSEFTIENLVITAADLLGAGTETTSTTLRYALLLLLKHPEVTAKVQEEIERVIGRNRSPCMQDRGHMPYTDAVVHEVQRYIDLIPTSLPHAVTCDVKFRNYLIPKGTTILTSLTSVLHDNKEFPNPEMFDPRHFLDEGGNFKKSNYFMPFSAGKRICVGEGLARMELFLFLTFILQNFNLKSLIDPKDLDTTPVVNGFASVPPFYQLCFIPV
CAAX prenyl protease 2 (Homo sapiens, UniProt Q9Y256), sequence (Q9Y256 whole entry): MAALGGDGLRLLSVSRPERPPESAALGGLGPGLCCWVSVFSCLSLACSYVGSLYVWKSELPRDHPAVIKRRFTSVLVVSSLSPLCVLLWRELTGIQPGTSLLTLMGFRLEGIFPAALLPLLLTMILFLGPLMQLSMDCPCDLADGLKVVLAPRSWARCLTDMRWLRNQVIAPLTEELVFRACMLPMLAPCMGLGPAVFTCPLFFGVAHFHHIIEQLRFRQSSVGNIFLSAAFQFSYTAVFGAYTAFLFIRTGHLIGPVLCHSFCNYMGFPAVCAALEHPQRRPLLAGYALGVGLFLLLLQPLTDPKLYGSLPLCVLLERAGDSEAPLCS
Cytochrome P450 3A4, sequence (P08684 whole entry): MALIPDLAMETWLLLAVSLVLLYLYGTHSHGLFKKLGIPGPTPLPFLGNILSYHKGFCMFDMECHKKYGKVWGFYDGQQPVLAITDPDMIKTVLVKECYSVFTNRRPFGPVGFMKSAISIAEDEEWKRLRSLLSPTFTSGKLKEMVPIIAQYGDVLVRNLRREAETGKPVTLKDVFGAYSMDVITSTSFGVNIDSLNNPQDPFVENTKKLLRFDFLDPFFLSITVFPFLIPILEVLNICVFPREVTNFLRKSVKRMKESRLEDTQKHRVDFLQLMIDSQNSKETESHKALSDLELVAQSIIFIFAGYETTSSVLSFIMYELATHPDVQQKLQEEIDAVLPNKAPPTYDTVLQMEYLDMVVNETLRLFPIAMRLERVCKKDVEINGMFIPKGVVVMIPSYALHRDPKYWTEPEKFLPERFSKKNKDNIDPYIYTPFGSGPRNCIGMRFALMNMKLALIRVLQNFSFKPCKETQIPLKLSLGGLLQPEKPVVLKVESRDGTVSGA
Nonstructural protein 1, sequence (Q194T2 whole entry): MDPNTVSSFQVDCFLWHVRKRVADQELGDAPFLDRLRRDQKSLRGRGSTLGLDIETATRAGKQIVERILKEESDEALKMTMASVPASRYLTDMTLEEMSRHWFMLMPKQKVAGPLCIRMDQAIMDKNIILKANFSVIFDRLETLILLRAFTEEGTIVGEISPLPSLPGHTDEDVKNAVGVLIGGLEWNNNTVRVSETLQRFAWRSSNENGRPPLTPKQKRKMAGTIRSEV

Take `CCCn1c(C)cc(C(=O)COc2ccc(C)nc2[N+](=O)[O-])c1C`: the EC50 in the data set with HEK293 [1] was > 20 µM (inactive); in data set [4] it was 7.64 µM (active). Also, the IC50 with HEK293 [2] was 3.81 µM (active); in the data set on HEK293 [3], > 20 µM (inactive); in the data set on HEK293 [5], > 20 µM (inactive); in the data set with HEK293 [6], > 20 µM (inactive); on Nonstructural protein 1, > 100 µM (active).
On to `COC(=O)c1cc(C(=O)Nc2cc(C)ccn2)cc([N+](=O)[O-])c1`, for which the concentration at half-maximal activity (AC50) is 132 µM (active) in the data set with Escherichia coli [7] and 63.9 µM (active) in the data set with Escherichia coli [8].
Consider `N#Cc1c(-c2ccccc2)cc(C2CC2)nc1N`, for which the EC50 with HEK293 [9] and in the data set on HEK293 [10] was > 59.7 µM (inactive) each time.
For the molecule `Cc1nc(Nc2cnc(/C=C/c3cc(C(=O)Nc4cccc(C(F)(F)F)c4)ccc3C)cn2)cc(N2CCNCC2)n1`, the concentration for a half-maximal effect (EC50) with HEK293 [1] is 7.82 µM (active); in data set [11], 6.39 µM (active); on Streptokinase A, 11.4 µM (active); in data set [4], 8.28 µM (active); in the data set on Streptococcus, > 150 µM (not active). Besides, the IC50 (with HEK293 [2]; in the data set on HEK293 [3]; in the data set on HEK293 [5]; with HEK293 [6]; in data set [12]) was > 20 µM (inactive) each time. Besides, in the data set with INS1, the AC50 was 8.7 µM (active).
Turning to `COc1ccc(C[C@H]2c3cc(O)c(OC)cc3CC[N+]2(C)[O-])cc1O` (stereo partly drawn), the half-maximal activity concentration (AC50) is 13.9 µM (active) on Trypsin, 7.82 µM (active) at CAAX prenyl protease 2 [13] and 2.8 µM (active) on CAAX prenyl protease 2 [14].
With `Cc1occc1C(=O)NCc1cccc(CNC(=O)c2ccoc2C)c1`, at Estrogen receptor, the half-maximal inhibitory concentration (IC50) is 19.7 µM (active). In addition, the AC50 with Escherichia coli [8] was 21.6 µM (active).
Consider `C#CCCCO/N=C1/[C@H]2O[C@@H]2[C@@H](O)[C@H]2[C@H]1CCn1c(=O)n(C)c(=O)n12`, for which the AC50 result at Cytochrome P450 2D6 was “inconclusive”.
Turning to `CCN(CC)S(=O)(=O)N1CCC(C(=O)NC2CCCC2)CC1`, the AC50 is 39.8 µM (inconclusive) at Cytochrome P450 2C19, 15.8 µM (inconclusive) on Cytochrome P450 3A4, 3.16 µM (inconclusive) on Cytochrome P450 2C9 and 26.2 µM (active) in the data set on Escherichia coli [7].
`CCOC(=O)c1c(NC(=O)/C=C/c2ccc3c(c2)OCO3)sc(C)c1C`: on Cytochrome P450 2D6, the half-maximal activity concentration (AC50) result is “inconclusive”.
